Assay results reported in PubChem BioAssay AID2060614 (Molecular Pharmacology Branch, DTP, NCI, 2025).

Test system: 598228-144-R-J1-PDC complex spheroids, viability
Experiment: Anticancer human tumor 598228-144-R-J1-PDC patient-derived serous endometrial adenocarcinoma cell line growth inhibition [CLK]
Conditions: for IC50: curve of first compound; for viability, T/C: stronger effect = lower value
How it was run: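 Multi-cell-type spheroids combined patient-derived tumor cells with HUVEC endothelial cells and human mesenchymal stem cells. Paired agents were dosed in half-log steps down from about clinical Cmax, or from 10 microM where Cmax was unknown.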

[1] = second compound 0.0316 µM, first compound 0.0316 µM
[2] = second compound 0.0316 µM, first compound 0.1 µM
[3] = second compound 0.0316 µM, first compound 0.316 µM
[4] = second compound 0.0316 µM, first compound 1 µM
[5] = second compound 0.0316 µM, first compound 3.16 µM
[6] = second compound 0.0316 µM, first compound 10 µM
[7] = second compound 0.1 µM, first compound 0.0316 µM
[8] = second compound 0.1 µM, first compound 0.1 µM
[9] = second compound 0.1 µM, first compound 0.316 µM
[10] = second compound 0.1 µM, first compound 1 µM
[11] = second compound 0.1 µM, first compound 3.16 µM
[12] = second compound 0.1 µM, first compound 10 µM
[13] = second compound 0.316 µM, first compound 0.0316 µM
[14] = second compound 0.316 µM, first compound 0.1 µM
[15] = second compound 0.316 µM, first compound 0.316 µM
[16] = second compound 0.316 µM, first compound 1 µM
[17] = second compound 0.316 µM, first compound 3.16 µM
[18] = second compound 0.316 µM, first compound 10 µM
[19] = second compound 1 µM, first compound 0.0316 µM
[20] = second compound 1 µM, first compound 0.1 µM
[21] = second compound 1 µM, first compound 0.316 µM
[22] = second compound 1 µM, first compound 1 µM
[23] = second compound 1 µM, first compound 3.16 µM
[24] = second compound 1 µM, first compound 10 µM
[25] = second compound 3.16 µM, first compound 0.0316 µM
[26] = second compound 3.16 µM, first compound 0.1 µM
[27] = second compound 3.16 µM, first compound 0.316 µM
[28] = second compound 3.16 µM, first compound 1 µM
[29] = second compound 3.16 µM, first compound 3.16 µM
[30] = second compound 3.16 µM, first compound 10 µM
[31] = second compound 10 µM, first compound 0.0316 µM
[32] = second compound 10 µM, first compound 0.1 µM
[33] = second compound 10 µM, first compound 0.316 µM
[34] = second compound 10 µM, first compound 1 µM
[35] = second compound 10 µM, first compound 3.16 µM
[36] = second compound 10 µM, first compound 10 µM
[37] = second compound 0.0316 µM, first compound 0.00316 µM
[38] = second compound 0.0316 µM, first compound 0.01 µM
[39] = second compound 0.1 µM, first compound 0.00316 µM
[40] = second compound 0.1 µM, first compound 0.01 µM
[41] = second compound 0.316 µM, first compound 0.00316 µM
[42] = second compound 0.316 µM, first compound 0.01 µM
[43] = second compound 1 µM, first compound 0.00316 µM
[44] = second compound 1 µM, first compound 0.01 µM
[45] = second compound 3.16 µM, first compound 0.00316 µM
[46] = second compound 3.16 µM, first compound 0.01 µM
[47] = second compound 10 µM, first compound 0.00316 µM
[48] = second compound 10 µM, first compound 0.01 µM
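Further: spheroids exposed to compounds for seven days before readout.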
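Wherever viability, T/C is given: 100% = DMSO vehicle control wells.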

C#Cc1c(F)ccc2cc(O)cc(-c3ncc4c(N5CC6CCC(C5)N6)nc(OCC56CCCN5CC(F)C6)nc4c3F)c12 (stereo not given) + CNC(=O)c1ccc(Nc2nc(OC3CCCC3)c3c(-c4ccc5nc(C)oc5c4)c[nH]c3n2)c(OC)c1
IC50 (second compound 0.0316 µM): > 10000 nM
IC50 (second compound 0.1 µM): > 10000 nM
IC50 (second compound 0.316 µM): > 10000 nM
IC50 (second compound 1 µM): > 10000 nM
IC50 (second compound 3.16 µM): > 10000 nM
IC50 (second compound 10 µM): > 10000 nM
viability, T/C [1]: 111%
viability, T/C [2]: 112%
viability, T/C [3]: 117%
viability, T/C [4]: 125%
viability, T/C [5]: 99.5%
viability, T/C [6]: 94.1%
viability, T/C [7]: 99.7%
viability, T/C [8]: 104%
viability, T/C [9]: 109%
viability, T/C [10]: 102%
viability, T/C [11]: 98.1%
viability, T/C [12]: 88.3%
viability, T/C [13]: 120%
viability, T/C [14]: 102%
viability, T/C [15]: 132%
viability, T/C [16]: 100%
viability, T/C [17]: 110%
viability, T/C [18]: 90.7%
viability, T/C [19]: 101%
viability, T/C [20]: 90.3%
viability, T/C [21]: 98.3%
viability, T/C [22]: 98.2%
viability, T/C [23]: 104%
viability, T/C [24]: 83.3%
viability, T/C [25]: 98.5%
viability, T/C [26]: 92.5%
viability, T/C [27]: 81.8%
viability, T/C [28]: 83.6%
viability, T/C [29]: 95.2%
viability, T/C [30]: 88.5%
viability, T/C [31]: 83.3%
viability, T/C [32]: 80.7%
viability, T/C [33]: 90.8%
viability, T/C [34]: 81.9%
viability, T/C [35]: 102%
viability, T/C [36]: 78.8%

CC(CO)NC(=O)c1cc(-c2ccc(Cl)cc2)nn(-c2cnn(C)c2)c1=O (stereo not given) + CNC(=O)c1ccc(Nc2nc(OC3CCCC3)c3c(-c4ccc5nc(C)oc5c4)c[nH]c3n2)c(OC)c1
IC50 (second compound 0.0316 µM): > 10000 nM
IC50 (second compound 0.1 µM): > 10000 nM
IC50 (second compound 0.316 µM): > 10000 nM
IC50 (second compound 1 µM): > 10000 nM
IC50 (second compound 3.16 µM): > 10000 nM
IC50 (second compound 10 µM): > 10000 nM
viability, T/C [1]: 124%
viability, T/C [2]: 102%
viability, T/C [3]: 102%
viability, T/C [4]: 104%
viability, T/C [5]: 92.8%
viability, T/C [6]: 94.4%
viability, T/C [7]: 94.9%
viability, T/C [8]: 107%
viability, T/C [9]: 96.5%
viability, T/C [10]: 103%
viability, T/C [11]: 106%
viability, T/C [12]: 83.8%
viability, T/C [13]: 111%
viability, T/C [14]: 104%
viability, T/C [15]: 92.8%
viability, T/C [16]: 96.5%
viability, T/C [17]: 106%
viability, T/C [18]: 96.8%
viability, T/C [19]: 111%
viability, T/C [20]: 104%
viability, T/C [21]: 112%
viability, T/C [22]: 105%
viability, T/C [23]: 111%
viability, T/C [24]: 87.6%
viability, T/C [25]: 85.7%
viability, T/C [26]: 94.7%
viability, T/C [27]: 92.2%
viability, T/C [28]: 102%
viability, T/C [29]: 94.8%
viability, T/C [30]: 81.4%
viability, T/C [31]: 90.4%
viability, T/C [32]: 77%
viability, T/C [33]: 95.8%
viability, T/C [34]: 77.5%
viability, T/C [35]: 112%
viability, T/C [36]: 83.1%

CC(Nc1ccc2c(c1)OCCn1cc(N3C(=O)OCC3C(F)F)nc1-2)C(N)=O (stereo not given) + CNC(=O)c1ccc(Nc2nc(OC3CCCC3)c3c(-c4ccc5nc(C)oc5c4)c[nH]c3n2)c(OC)c1
IC50 (second compound 0.0316 µM): 309 nM
IC50 (second compound 0.1 µM): 310 nM
IC50 (second compound 0.316 µM): 248 nM
IC50 (second compound 1 µM): 159 nM
IC50 (second compound 3.16 µM): 145 nM
IC50 (second compound 10 µM): 100 nM
viability, T/C [1]: 91.9%
viability, T/C [2]: 62.8%
viability, T/C [3]: 53.1%
viability, T/C [4]: 38.2%
viability, T/C [5]: 31.5%
viability, T/C [6]: 25.8%
viability, T/C [7]: 88.2%
viability, T/C [8]: 70.3%
viability, T/C [9]: 47%
viability, T/C [10]: 35.5%
viability, T/C [11]: 35.5%
viability, T/C [12]: 22.1%
viability, T/C [13]: 77.5%
viability, T/C [14]: 58.5%
viability, T/C [15]: 51.6%
viability, T/C [16]: 32.2%
viability, T/C [17]: 26.2%
viability, T/C [18]: 22.9%
viability, T/C [19]: 75.2%
viability, T/C [20]: 56.4%
viability, T/C [21]: 37.4%
viability, T/C [22]: 32.4%
viability, T/C [23]: 23.1%
viability, T/C [24]: 12.8%
viability, T/C [25]: 69.7%
viability, T/C [26]: 58.4%
viability, T/C [27]: 33.8%
viability, T/C [28]: 26.4%
viability, T/C [29]: 21.2%
viability, T/C [30]: 13.7%
viability, T/C [31]: 70.3%
viability, T/C [32]: 50.6%
viability, T/C [33]: 33.1%
viability, T/C [34]: 22.9%
viability, T/C [35]: 18.8%
viability, T/C [36]: 12.6%

CCN1CCN(Cc2ccc(Nc3ncc(F)c(-c4cc(F)c5nc(C)n(C(C)C)c5c4)n3)nc2)CC1 + CNC(=O)c1ccc(Nc2nc(OC3CCCC3)c3c(-c4ccc5nc(C)oc5c4)c[nH]c3n2)c(OC)c1
IC50 (second compound 0.0316 µM): > 1000 nM
IC50 (second compound 0.1 µM): > 1000 nM
IC50 (second compound 0.316 µM): > 1000 nM
IC50 (second compound 1 µM): > 1000 nM
IC50 (second compound 3.16 µM): > 1000 nM
IC50 (second compound 10 µM): > 1000 nM
viability, T/C [37]: 104%
viability, T/C [38]: 114%
viability, T/C [1]: 105%
viability, T/C [2]: 116%
viability, T/C [3]: 112%
viability, T/C [4]: 88.8%
viability, T/C [39]: 110%
viability, T/C [40]: 110%
viability, T/C [7]: 126%
viability, T/C [8]: 109%
viability, T/C [9]: 120%
viability, T/C [10]: 97.5%
viability, T/C [41]: 119%
viability, T/C [42]: 107%
viability, T/C [13]: 118%
viability, T/C [14]: 99%
viability, T/C [15]: 108%
viability, T/C [16]: 87.5%
viability, T/C [43]: 105%
viability, T/C [44]: 89.8%
viability, T/C [19]: 91.8%
viability, T/C [20]: 119%
viability, T/C [21]: 106%
viability, T/C [22]: 78.6%
viability, T/C [45]: 95.2%
viability, T/C [46]: 92.5%
viability, T/C [25]: 82.3%
viability, T/C [26]: 92.5%
viability, T/C [27]: 95.8%
viability, T/C [28]: 93%
viability, T/C [47]: 95.5%
viability, T/C [48]: 89.4%
viability, T/C [31]: 90.2%
viability, T/C [32]: 96.8%
viability, T/C [33]: 108%
viability, T/C [34]: 80.5%

COc1c(OCCCN2CCOCC2)ccc2c3n(c(=NC(=O)c4cnc(N)nc4)nc12)CCN3 + CNC(=O)c1ccc(Nc2nc(OC3CCCC3)c3c(-c4ccc5nc(C)oc5c4)c[nH]c3n2)c(OC)c1
IC50 (second compound 0.0316 µM): 26.1 nM
IC50 (second compound 0.1 µM): 30.2 nM
IC50 (second compound 0.316 µM): 18.4 nM
IC50 (second compound 1 µM): 15.2 nM
IC50 (second compound 3.16 µM): 10.6 nM
IC50 (second compound 10 µM): 9.94 nM
viability, T/C [37]: 85.7%
viability, T/C [38]: 65.5%
viability, T/C [1]: 49%
viability, T/C [2]: 26.5%
viability, T/C [3]: 15.7%
viability, T/C [4]: 9.14%
viability, T/C [39]: 104%
viability, T/C [40]: 74.2%
viability, T/C [7]: 51.4%
viability, T/C [8]: 25.8%
viability, T/C [9]: 13.6%
viability, T/C [10]: 5.09%
viability, T/C [41]: 97.8%
viability, T/C [42]: 65.4%
viability, T/C [13]: 35.7%
viability, T/C [14]: 19.6%
viability, T/C [15]: 11.3%
viability, T/C [16]: 5.13%
viability, T/C [43]: 86.8%
viability, T/C [44]: 61.4%
viability, T/C [19]: 29.9%
viability, T/C [20]: 16.6%
viability, T/C [21]: 8.67%
viability, T/C [22]: 5.42%
viability, T/C [45]: 73.5%
viability, T/C [46]: 51.5%
viability, T/C [25]: 28.4%
viability, T/C [26]: 13.9%
viability, T/C [27]: 7.8%
viability, T/C [28]: 3.58%
viability, T/C [47]: 71.2%
viability, T/C [48]: 50.3%
viability, T/C [31]: 24.8%
viability, T/C [32]: 12.9%
viability, T/C [33]: 6.23%
viability, T/C [34]: 5.18%
